Reference: patent US7576222B2, “Alkynyl-containing tryptophan derivative inhibitors of TACE/matrix metalloproteinase” (priority 2004, dated 2009)

biological target: T1, catalytic domain of the recombinant TACE protein (Homo sapiens, UniProt P78536); experiment: TACE FRET assay using TACE cat; format: biochemical; conditions: not given
T1 construct: The catalytic domain of the recombinant TACE protein was expressed and purified; made in house
Procedure, shortened: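 Enzyme (1 ug/ml) pretreated with inhibitor for 10 min at room temperature in 50 mM Tris-HCl pH 7.4, 25 mM NaCl, 4% glycerol, 0.005% Brij 35, then started with FRET peptide Abz-[sequence]-Dpa (2 mM stock). Initial rate taken from fluorescence slope; IC50 fitted with floated Hill slope and background.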

T1 sequence (P78536 223-474 limits assumed): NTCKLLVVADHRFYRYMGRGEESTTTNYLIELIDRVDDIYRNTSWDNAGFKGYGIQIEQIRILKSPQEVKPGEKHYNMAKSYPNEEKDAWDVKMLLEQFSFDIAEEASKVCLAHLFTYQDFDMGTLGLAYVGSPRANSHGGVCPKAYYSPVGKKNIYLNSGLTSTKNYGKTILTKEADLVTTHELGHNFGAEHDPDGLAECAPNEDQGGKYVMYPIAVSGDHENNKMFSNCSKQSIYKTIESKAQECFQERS

In order of rising IC50:
1. CC#CCOc1ccc(S(=O)(=O)N[C@@H](Cc2c(C)n(Cc3ccc(Cl)cc3)c3ccc(OC)cc23)C(=O)O)cc1 [Example 201, N-{[4-(but-2-ynyloxy)phenyl]sulfonyl}-1-(4-chlorobenzyl)-5-methoxy-2-methyltryptophan]  290 nM
2. CC#CCOc1ccc(S(=O)(=O)N[C@@H](Cc2c(C)n(Cc3cccc(F)c3)c3ccc(OC)cc23)C(=O)O)cc1 [Example 198, N-{[4-(but-2-ynyloxy)phenyl]sulfonyl}-1-(3-fluorobenzyl)-5-methoxy-2-methyltryptophan]  340 nM
3. CC#CCOc1ccc(S(=O)(=O)N[C@@H](Cc2c(C)n(Cc3ccccc3C(F)(F)F)c3ccc(OC)cc23)C(=O)O)cc1 [Example 193, N-{[4-(but-2-ynyloxy)phenyl]sulfonyl}-5-methoxy-2-methyl-1-[2-(trifluoromethyl)benzyl]tryptophan]  450 nM
4. CC#CCOc1ccc(S(=O)(=O)N[C@H](Cc2cn(CC3CCCCC3)c3ccccc23)C(=O)O)cc1 [Example 23, N-{[4-(but-2-ynyloxy)phenyl]sulfonyl}-1-(cyclohexylmethyl)-D-tryptophan]  1710 nM

same assay, conditions: TACE FRET assay, Conc. 1 μM

With `CC#CCOc1ccc(S(=O)(=O)N[C@@H](Cc2cn(Cc3ccccc3OC)c3ccc(C(=O)O)cc23)C(=O)O)cc1` [Example 107] the “TACE Inhibition (%)” value was 7.34%.

same assay, conditions: TACE FRET assay, catalytic domain of recombinant TACE; read-out: TACE IC50

In order of rising IC50:
1. C=CCOc1ccc(Cn2cc(C[C@@H](NS(=O)(=O)c3ccc(OCC#CC)cc3)C(=O)O)c3ccccc32)cc1 [Example 216, 1-[4-(allyloxy)benzyl]-N-{[4-(but-2-ynyloxy)phenyl]sulfonyl}-D-tryptophan]  540 nM
2. CC#CCOc1ccc(S(=O)(=O)N[C@H](Cc2cn(Cc3cc(OC)cc(OC)c3)c3ccccc23)C(=O)O)cc1 [Example 36, N-{[4-(but-2-ynyloxy)phenyl]sulfonyl}-1-(3,5-dimethoxybenzyl)-D-tryptophan]  980 nM
3. CC#CCOc1ccc(S(=O)(=O)N[C@H](Cc2cn(Cc3ccccc3)c3ccccc23)C(=O)O)cc1 [Example 25, 1-benzyl-N-{[4-(but-2-ynyloxy)phenyl]sulfonyl}-D-tryptophan]  2150 nM
4. CC#CCOc1ccc(S(=O)(=O)N[C@H](Cc2c[nH]c3ccccc23)C(=O)O)cc1 [Example 1, N-{[4-(but-2-ynyloxy)phenyl]sulfonyl}-D-tryptophan]  2530 nM
5. CC#CCOc1ccc(S(=O)(=O)N[C@H](Cc2cn(Cc3ccc(C)cc3)c3ccccc23)C(=O)O)cc1 [Example 26, N-{[4-(but-2-ynyloxy)phenyl]sulfonyl}-1-(4-methylbenzyl)-D-tryptophan]  3590 nM
6. CC#CCOc1ccc(S(=O)(=O)N[C@H](Cc2cn(C(=O)OC(C)(C)C)c3ccccc23)C(=O)O)cc1 [Example 220, 1-(tert-butoxycarbonyl)-N-{[4-(but-2-ynyloxy)phenyl]sulfonyl}-D-tryptophan]  3670 nM
7. CC#CCOc1ccc(S(=O)(=O)N[C@@H](Cc2c[nH]c3ccccc23)C(=O)O)cc1 [Example 2, N-{[4-(but-2-ynyloxy)phenyl]sulfonyl}-L-tryptophan]  8200 nM

same assay, conditions: read-out: TACE Inhibition (%)

In order of falling inhibition at 1 µM:
1. CC#CCOc1ccc(S(=O)(=O)N[C@@H](Cc2c(C)n(Cc3ccc(C(F)(F)F)cc3)c3ccc(OC)cc23)C(=O)O)cc1 [Example 195, N-{[4-(but-2-ynyloxy)phenyl]sulfonyl}-5-methoxy-2-methyl-1-[4-(trifluoromethyl)benzyl]tryptophan]  78.3%
2. CC#CCOc1ccc(S(=O)(=O)N[C@@H](Cc2c(C)n(Cc3ccccc3OC)c3ccc(OC)cc23)C(=O)O)cc1 [Example 189, N-{[4-(but-2-ynyloxy)phenyl]sulfonyl}-5-methoxy-1-(2-methoxybenzyl)-2-methyltryptophan]  75.6%
3. CC#CCOc1ccc(S(=O)(=O)N[C@@H](Cc2c(C)n(Cc3ccc(F)cc3)c3ccc(Cl)cc23)C(=O)O)cc1 [Example 95, N-{[4-(but-2-ynyloxy)phenyl]sulfonyl}-5-chloro-1-(4-fluorobenzyl)-2-methyltryptophan]  63.6%
4. CC#CCOc1ccc(S(=O)(=O)N[C@@H](Cc2c(C)n(CC3CCC3)c3ccc(OC)cc23)C(=O)O)cc1 [Example 212, N-{[4-(but-2-ynyloxy)phenyl]sulfonyl}-1-(cyclobutylmethyl)-5-methoxy-2-methyltryptophan]  59.5%
5. CC#CCOc1ccc(S(=O)(=O)N[C@@H](Cc2c(C)n(Cc3ccc4c(c3)OCO4)c3ccc(Cl)cc23)C(=O)O)cc1 [Example 100, 1-(1,3-benzodioxol-5-ylmethyl)-N-{[4-(but-2-ynyloxy)phenyl]sulfonyl}-5-chloro-2-methyltryptophan]  55.6%
6. CC#CCOc1ccc(S(=O)(=O)N[C@@H](Cc2cn(Cc3ccccc3)c3ccc(OC)cc23)C(=O)O)cc1 [Example 48, 1-benzyl-N-{[4-(but-2-ynyloxy)phenyl]sulfonyl}-5-methoxytryptophan]  37.2%
7. CC#CCOc1ccc(S(=O)(=O)N[C@@H](Cc2c(C)n(Cc3cccc(OC)c3)c3ccccc23)C(=O)O)cc1 [Example 147, N-{[4-(but-2-ynyloxy)phenyl]sulfonyl}-1-(3-methoxybenzyl)-2-methyltryptophan]  35.6%
8. CC#CCOc1ccc(S(=O)(=O)N[C@@H](Cc2c(C)n(Cc3ccc(C(C)C)cc3)c3ccccc23)C(=O)O)cc1 [Example 157, N-{[4-(but-2-ynyloxy)phenyl]sulfonyl}-1-(4-isopropylbenzyl)-2-methyltryptophan]  34.2%
9. CC#CCOc1ccc(S(=O)(=O)N[C@@H](Cc2cn(Cc3ccc(C(F)(F)F)cc3)c3ccc(OC)cc23)C(=O)O)cc1 [Example 57, N-{[4-(but-2-ynyloxy)phenyl]sulfonyl}-5-methoxy-1-[4-(trifluoromethyl)benzyl]tryptophan]  32.1%
10. CC#CCOc1ccc(S(=O)(=O)N[C@@H](Cc2cn(Cc3cccc(C)c3)c3ccc(OC)cc23)C(=O)O)cc1 [Example 50, N-{[4-(but-2-ynyloxy)phenyl]sulfonyl}-5-methoxy-1-(3-methylbenzyl)tryptophan]  30.6%
11. CC#CCOc1ccc(S(=O)(=O)N[C@@H](Cc2cn(Cc3cccc(F)c3)c3ccc(Cl)cc23)C(=O)O)cc1 [Example 80, N-{[4-(but-2-ynyloxy)phenyl]sulfonyl}-5-chloro-1-(3-fluorobenzyl)tryptophan]  27.1%
12. CC#CCOc1ccc(S(=O)(=O)N[C@@H](Cc2c(C)n(Cc3ccc(C(C)C)cc3)c3ccc(Cl)cc23)C(=O)O)cc1 [Example 97, N-{[4-(but-2-ynyloxy)phenyl]sulfonyl}-5-chloro-1-(4-isopropylbenzyl)-2-methyltryptophan]  21.9%
13. CC#CCOc1ccc(S(=O)(=O)N[C@@H](Cc2cn(Cc3ccccc3OC)c3ccc(Cl)cc23)C(=O)O)cc1 [Example 74, N-{[4-(but-2-ynyloxy)phenyl]sulfonyl}-5-chloro-1-(2-methoxybenzyl)tryptophan]  15%
14. CC#CCOc1ccc(S(=O)(=O)N[C@@H](Cc2cn(Cc3ccccc3C(F)(F)F)c3ccc(C(=O)O)cc23)C(=O)O)cc1 [Example 111, N-{[4-(but-2-ynyloxy)phenyl]sulfonyl}-5-carboxy-1-[2(trifluoromethyl)benzyl]tryptophan]  10.7%
15. CC#CCOc1ccc(S(=O)(=O)N[C@@H](Cc2cn(Cc3ccc4c(c3)OCO4)c3ccc(C(=O)O)cc23)C(=O)O)cc1 [Example 124, 1-(1,3-benzodioxol-5-ylmethyl)-N-{[4-(but-2-ynyloxy)phenyl]sulfonyl}-5-carboxytryptophan]  10.2%
16. CC#CCOc1ccc(S(=O)(=O)N[C@@H](Cc2cn(Cc3cccc(OC)c3)c3ccc(C(=O)O)cc23)C(=O)O)cc1 [Example 108, N-{[4-(but-2-ynyloxy)phenyl]sulfonyl}-5-carboxy-1-(3-methoxybenzyl)tryptophan]  9.93%
17. CC#CCOc1ccc(S(=O)(=O)N[C@@H](Cc2cn(Cc3cccc(F)c3)c3ccc(C(=O)O)cc23)C(=O)O)cc1 [Example 116, N-{[4-(but-2-ynyloxy)phenyl]sulfonyl}-5-carboxy-1-(3-fluorobenzyl)tryptophan]  9.72%
18. CC#CCOc1ccc(S(=O)(=O)N[C@@H](Cc2cn(Cc3ccc(OC(F)(F)F)cc3)c3ccc(Cl)cc23)C(=O)O)cc1 [Example 78, N-{[4-(but-2-ynyloxy)phenyl]sulfonyl}-5-chloro-1-[4-(trifluoromethoxy)benzyl]tryptophan]  7.39%
19. CC#CCOc1ccc(S(=O)(=O)N[C@@H](Cc2cn(Cc3cccc(C(F)(F)F)c3)c3ccc(C(=O)O)cc23)C(=O)O)cc1 [Example 112, N-{[4-(but-2-ynyloxy)phenyl]sulfonyl}-5-carboxy-1-[3-(trifluoromethyl)benzyl]tryptophan]  5.51%
20. CC#CCOc1ccc(S(=O)(=O)N[C@@H](Cc2cn(Cc3ccccc3F)c3ccc(C(=O)O)cc23)C(=O)O)cc1 [Example 115, N-{[4-(but-2-ynyloxy)phenyl]sulfonyl}-5-carboxy-1-(2-fluorobenzyl)tryptophan]  4.29%
21. CC#CCOc1ccc(S(=O)(=O)N[C@@H](Cc2cn(Cc3cccc(C#N)c3)c3ccc(C(=O)O)cc23)C(=O)O)cc1 [Example 122, N-{[4-(but-2-ynyloxy)phenyl]sulfonyl}-5-carboxy-1-(3-cyanobenzyl)tryptophan]  -0.34%
22. CC#CCOc1ccc(S(=O)(=O)N[C@@H](Cc2cn(Cc3ccc(C(F)(F)F)cc3)c3ccc(C(=O)O)cc23)C(=O)O)cc1 [Example 113, N-{[4-(but-2-ynyloxy)phenyl]sulfonyl}-5-carboxy-1-[4-(trifluoromethyl)benzyl]tryptophan]  -2.04%
23. CC#CCOc1ccc(S(=O)(=O)N[C@@H](Cc2cn(C)c3ccc(C(=O)O)cc23)C(=O)O)cc1 [Example 127, N-{[4-(but-2-ynyloxy)phenyl]sulfonyl}-5-carboxy-1-methyltryptophan]  -3.22%
